One may read the IC50 as the concentration at which inhibition is half-maximal. By EC50 is commonly meant the midpoint of the concentration-response curve.

“Also recorded” adds a separate entry of the source. Like-named read-outs stand apart in the source and are kept apart here.

These results are taken from paper PMC11593225, “Polyphenolic Compounds Activate SERCA1a and Attenuate Methylglyoxal- and Palmitate-Induced Impairment in Pancreatic INS-1E Beta Cells” (Cells, 2024).

For data set [1], the system named is INS-1E beta cells. Briefly: MTT viability assay in INS-1E beta cells. To be noted: for IC50: MTT, read-out: IC50, INS-1E cell viability; for PAL INS-1E Viability: in the presence of PAL; for Effect on INS-1E viability in the presence of MGX: 2.5 mM MGX; for Concentrations protecting against MGX-induced beta cell viability decrease: MGX 2.5 mM. The data set is classed as cell-based. On the procedure: The INS-1E insulinoma pancreatic beta cell line (kindly provided by Prof. Claes Wollheim, University of Geneva) was cultured in RPMI 1640 (11 mM glucose, Sigma, St. Louis, MO, USA). The RPMI 1640 was supplemented with 100 U/mL penicillin, 100 μg/mL streptomycin, 2 mM L-glutamine, 1 mM Na pyruvate, 55 μM 2-mercaptoethanol, 10 mM HEPES, 1% nonessential amino acids, and 10% fetal bovine serum (pH 7.0–7.4). Cells were cultivated in a humidified incubator containing 5% CO2 at 37 °C. All experiments were conducted using cells from passages 40 to 70. […] Subsequent measurements were then performed using a cytotoxicity MTT assay and an insulin release assay.
The MTT (Sigma, St. Louis, MO, USA) reduction assay was used as an indicator of cell damage and was conducted following a standard protocol. INS-1E cells (5 × 10^4 cells per well) were seeded into 96-microwell plates. The cells were preincubated for different periods with or without various concentrations of individual compounds for 24 h (5% CO2 at 37 °C). MTT was introduced to achieve a final concentration of 0.5 mg/mL in an RPMI 1640 medium. Following a 4 h incubation, the MTT medium was removed. The addition of DMSO (100 µL) was added and left to stand for 15 min to solubilize the formazan formed. The absorbance was recorded at 570 nm using a microplate reader (Infinite M200, Tecan, Switzerland).
On the technique in general: Formazan colour is commonly taken as a measure of viable cells.

The next data set deals with T1, SERCA1a (Oryctolagus cuniculus, UniProt P04191).
T1 construct: Sarcoplasmic reticulum (SR) vesicles were isolated from the fast-twitch skeletal muscle; from tissue; host or cells: rabbit fast-twitch skeletal muscle, sarcoplasmic reticulum vesicles
T1 sequence (P04191 1-994 isoform P04191-2): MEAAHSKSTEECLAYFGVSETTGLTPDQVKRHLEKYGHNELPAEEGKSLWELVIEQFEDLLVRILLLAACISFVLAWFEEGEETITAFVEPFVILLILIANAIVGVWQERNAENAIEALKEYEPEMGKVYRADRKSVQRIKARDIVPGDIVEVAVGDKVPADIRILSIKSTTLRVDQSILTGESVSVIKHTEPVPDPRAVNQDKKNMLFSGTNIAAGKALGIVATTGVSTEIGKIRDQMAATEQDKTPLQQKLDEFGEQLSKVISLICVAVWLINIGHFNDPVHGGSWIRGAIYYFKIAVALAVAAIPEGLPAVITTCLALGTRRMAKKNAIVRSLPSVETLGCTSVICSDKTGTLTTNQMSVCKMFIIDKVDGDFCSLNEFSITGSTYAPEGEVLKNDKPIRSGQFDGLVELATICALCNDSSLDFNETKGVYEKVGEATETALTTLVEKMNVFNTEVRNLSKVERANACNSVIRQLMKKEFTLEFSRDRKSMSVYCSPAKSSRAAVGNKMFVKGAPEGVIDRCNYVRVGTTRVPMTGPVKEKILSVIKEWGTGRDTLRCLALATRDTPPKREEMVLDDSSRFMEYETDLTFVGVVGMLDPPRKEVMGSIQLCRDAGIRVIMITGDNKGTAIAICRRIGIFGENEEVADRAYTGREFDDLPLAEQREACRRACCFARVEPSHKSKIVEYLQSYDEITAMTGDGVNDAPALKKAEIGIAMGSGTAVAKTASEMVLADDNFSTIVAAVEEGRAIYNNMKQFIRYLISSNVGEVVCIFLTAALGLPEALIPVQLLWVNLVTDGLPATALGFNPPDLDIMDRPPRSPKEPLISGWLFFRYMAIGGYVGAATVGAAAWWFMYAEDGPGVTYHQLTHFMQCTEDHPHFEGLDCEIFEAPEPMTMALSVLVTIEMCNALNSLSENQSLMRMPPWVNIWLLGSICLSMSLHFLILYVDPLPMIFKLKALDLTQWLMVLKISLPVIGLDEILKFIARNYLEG
The data set can be described thus: SERCA1a ATPase activity, NADH-coupled enzyme assay in sarcoplasmic reticulum vesicles.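 On all read-outs here: rabbit fast-twitch skeletal muscle SR vesicles with Ca2+ ionophore A23187, ATP hydrolysis rate followed as NADH absorbance loss at 340 nm, 37 °C, started by 10 µM CaCl2.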 The data set is classed as biochemical, rabbit. The following applies: for PAL SERCA1a Activity: in the presence of PAL; for IC50: read-out: IC50, reduction in SERCA1a activity; for Effect on SERCA1a activity in the presence of MGX: 3 mM MGX; for Effect on SERCA1a activity in the presence of PAL: 0.65 mM PAL; for Effect on SERCA1a activity: 2 min; for Concentration from which the SERCA1a activating effect starts: concentration-dependent activation.

Data set [2] deals with INS-1E beta cells. The data set can be described thus: Insulin release from INS-1E beta cells (RIA). The data set is classed as cell-based. The following applies: for Insulin Secretion Non-Stimulated / Insulin release from non-stimulated cells: 3 mM glucose; for Insulin release from non-stimulated cells / Insulin release from Glu-stimulated cells: 50 µM, except CUR and THCU 10 µM, 24 h; for Insulin release from Glu-stimulated cells / Insulin Secretion Stimulated: 16.7 mM glucose. On the procedure:
The INS-1E insulinoma pancreatic beta cell line (kindly provided by Prof. Claes Wollheim, University of Geneva) was cultured in RPMI 1640 (11 mM glucose, Sigma, St. Louis, MO, USA). The RPMI 1640 was supplemented with 100 U/mL penicillin, 100 μg/mL streptomycin, 2 mM L-glutamine, 1 mM Na pyruvate, 55 μM 2-mercaptoethanol, 10 mM HEPES, 1% nonessential amino acids, and 10% fetal bovine serum (pH 7.0–7.4). Cells were cultivated in a humidified incubator containing 5% CO2 at 37 °C. All experiments were conducted using cells from passages 40 to 70. The cells were pre-treated with various concentrations of individual compounds (5–200 μM) for 24 h with or without MGX (2.5 mM) and PAL (0.4 mM). Subsequent measurements were then performed using a cytotoxicity MTT assay and an insulin release assay.
Insulin release in response to glucose was measured in INS-1E beta cells ([…]). Briefly, after 24 h preincubation with individual compounds, beta cells were washed with a glucose-free KRBH buffer. Subsequently, cells were incubated at 37 °C for 30 min in a glucose-free KRBH buffer, followed by another 30 min incubation at 37 °C in a KRBH buffer containing either 3 mM glucose (non-stimulating concentration) or 16.7 mM glucose (insulin-stimulating concentration). The supernatants were then collected and analyzed using an RIA kit (Mercodia, Uppsala, Sweden) for insulin release, with rat insulin as the standard.

The next data set has as its system SERCA2 isoform. The arrangement: method as in Kang et al. [43] and Nguyen et al. [44]. The following applies: ref Kang et al. [43] and Nguyen et al. [44]; cited from earlier work.
The mark [3] stands for this setting: SR vesicles, no stressor, read-out: EC50, SERCA1a activation.

As for `O=c1c(O)c(-c2cc(O)c(O)c(O)c2)oc2cc(O)cc(O)c12` [MYR, Myricetin], the “Effect on INS-1E viability in the presence of PAL” value with INS-1E beta cells [1] (0.4 mM PAL, 5–200 μM) is recorded as “highest degree of protection”. The “INS-1E viability restored, % of the control cell value” in the data set with INS-1E beta cells [1] (0.4 mM PAL, 10 and 50 µM) is on record as “approximately 80%”. For the same compound, the “SERCA1a Activity” value on SERCA1a (control conditions) is on record as “-”. Moreover, the “PAL SERCA1a Activity” value at SERCA1a was “-”.

As for `CC(=O)C=O` [MGX, methylglyoxal], the IC50 was determined as 2540 µM with INS-1E beta cells [1] and 2980 µM at SERCA1a (SR vesicles).

Consider `Oc1cc(O)cc(/C=C/c2ccc(O)cc2O)c1` [ORES, Oxyresveratrol], for which the “PAL INS-1E Viability” value with INS-1E beta cells [1] was “-”. Further, the “Insulin Secretion Non-Stimulated” value in the data set with INS-1E beta cells [2] is “-”. At SERCA1a (5–200 μM), the “Effect on SERCA1a activity in the presence of MGX” value is “further decreased SERCA1a activity”. In addition, the “PAL SERCA1a Activity” value at SERCA1a is recorded as “-”.

In the case of `COc1cc(CCC(=O)CC(=O)CCc2ccc(O)c(OC)c2)ccc1O` [THCU, Tetrahydrocurcumin], the “Effect on INS-1E cell viability” value with INS-1E beta cells [1] (20 µM, 24 h) was “stimulating effect on cell viability”. For the same compound, in the data set on INS-1E beta cells [1] (20 µM), the “Effect on INS-1E viability in the presence of MGX” value is “protective effect”. Also, the “Concentrations protecting against MGX-induced beta cell viability decrease” value in the data set on INS-1E beta cells [1] is recorded as < 20 µM. Further, in the data set with INS-1E beta cells [2], the “Insulin release from non-stimulated cells” value is given as “significant increase in insulin release” and the “Insulin release from Glu-stimulated cells” value is given as “significant increase in insulin release”. In addition, at SERCA1a (in the presence of MGX), the “MGX SERCA1a Activity” value was “-”. The “PAL SERCA1a Activity” value at SERCA1a is reported as “-”.

Curcumin: the “Effect on INS-1E viability in the presence of PAL” value in the data set with INS-1E beta cells [1] (0.4 mM PAL, 5–200 μM) is reported as “protection”. Besides, the “Effect on INS-1E viability in the presence of MGX” value with INS-1E beta cells [1] (5 and 10 µM) is “protective effect”. For the same compound, the “Concentrations protecting against MGX-induced beta cell viability decrease” value with INS-1E beta cells [1] was < 20 µM. Further, in the data set on INS-1E beta cells [2], the “Insulin release from non-stimulated cells” value is recorded as “significant increase in insulin release”. Besides, the “Insulin release from Glu-stimulated cells” value with INS-1E beta cells [2] is given as “significant increase in insulin release”. On SERCA1a (5–200 μM), the “Effect on SERCA1a activity in the presence of PAL” value was “additional decrease in SERCA1a activity”. For the same compound, the results for the “Effect on SERCA1a activity in the presence of MGX” value on SERCA1a (10 µM) and on SERCA1a (20–50 µM) were “prevented MGX-mediated decline” and “further decreased SERCA1a activity”, respectively.

For the compound `CCCCC/C=C/C(=O)CCc1ccc(O)c(OC)c1` [SHO, [6]-Shogaol], in the data set with INS-1E beta cells [2], the “Insulin Secretion Non-Stimulated” value was “-” and the “Insulin Secretion Stimulated” value is “-”. At SERCA1a (5–200 μM), the “Effect on SERCA1a activity in the presence of PAL” value was “additional decrease in SERCA1a activity; also recorded: no preventive effect”, the “Effect on SERCA1a activity in the presence of MGX” value is given as “further decreased SERCA1a activity; also recorded: no preventive effect” and the “Effect on SERCA1a activity” value was “does not”.

In the case of `Oc1cc(O)c2cc(O)c(-c3ccc(O)c(O)c3)[o+]c2c1` [CYA, Cyanidin chloride], at SERCA1a (5–200 μM), the “Effect on SERCA1a activity” value was “increase SERCA1a activity”.

With `Oc1ccc(/C=C/c2cc(O)cc(O)c2)cc1` [RES, Resveratrol], the “Effect on INS-1E viability in the presence of PAL” value with INS-1E beta cells [1] (0.4 mM PAL, 5–200 μM) is “did not prevent the decrease”. Further, the “Effect on INS-1E viability in the presence of MGX” value in the data set with INS-1E beta cells [1] (5–200 μM, 24 h) is given as “no effect; also recorded: did not prevent the decrease”. Besides, the “MGX INS-1E Viability” value with INS-1E beta cells [1] (in the presence of MGX) is “-”. Further, in the data set with INS-1E beta cells [1], the “PAL INS-1E Viability” value was “-”. In the data set on INS-1E beta cells [2], the “Insulin Secretion Non-Stimulated” value is on record as “-” and the “Insulin Secretion Stimulated” value is reported as “-”. The “Effect on SERCA1a activity in the presence of MGX” value at SERCA1a (5–200 μM) is given as “potent concentration-dependent protective effect”. Moreover, the EC50 at SERCA1a (in the presence of MGX (3 mM), read-out: EC50, protection of SERCA1 activity against MGX) was determined as 112 µM.

As to `CCCCCCCCCCCCCCCC(=O)O` [PAL, palmitate], the 50% inhibitory concentration (IC50) in the data set on INS-1E beta cells [1] (INS-1E) is 410 µM; at SERCA1a (SR vesicles), 650 µM.

On to `Cc1ccc2cccc(NC(=O)c3ccc(OC(C)C)cc3)c2n1` [CDN1163], for which the “Concentrations required for efficient SERCA activation” value in the data set on SERCA2 isoform is 1 to 10 µM.

As to `CCCCC[C@H](O)CC(=O)CCc1ccc(O)c(OC)c1` [GIN, [6]-Gingerol], in the data set with INS-1E beta cells [2], the “Insulin release from non-stimulated cells” value is recorded as “did not induce an increase”, the “Insulin release from Glu-stimulated cells” value is given as “slight increase” and the “Insulin Secretion Non-Stimulated” value was “-”. Moreover, on SERCA1a (5–200 μM), the “Effect on SERCA1a activity in the presence of PAL” value is listed as “protective effect”, the “Effect on SERCA1a activity in the presence of MGX” value is on record as “potent concentration-dependent protective effect” and the “Effect on SERCA1a activity” value is on record as “increase SERCA1a activity”. For the same compound, the “Effect on SERCA1a activity in the presence of PAL” value on SERCA1a (50 and 100 μM) is listed as “protected against the decrease in SERCA1 activity”. At SERCA1a (100–200 μM), the “Effect on SERCA1a activity in the presence of MGX” value is reported as “protected against the decrease in SERCA1 activity”. Besides, the EC50 on SERCA1a (setting [3]) was 36.9 µM. For the same compound, at SERCA1a, the “Concentration from which the SERCA1a activating effect starts” value is ≥ 30 µM.

On to `O=c1oc2c(O)c(O)cc3c(=O)oc4c(O)c(O)cc1c4c23` [EA, Ellagic acid], for which the “Effect on INS-1E viability in the presence of PAL” value with INS-1E beta cells [1] (0.4 mM PAL, 5–200 μM) is on record as “protection”. Further, in the data set on INS-1E beta cells [2], the “Insulin release from non-stimulated cells” value is recorded as “significant increase in insulin release” and the “Insulin release from Glu-stimulated cells” value is listed as “significant increase in insulin release”. Besides, the “Increase in SERCA1a activity” value on SERCA1a (50 μM) was “approximately 150%”. Moreover, the “Effect on SERCA1a activity in the presence of PAL” value on SERCA1a (50 µM) was “alleviated PAL-induced injury almost to control values”. For the same compound, on SERCA1a (5–200 μM), the “Effect on SERCA1a activity in the presence of PAL” value is recorded as “most profound protective effect”, the “Effect on SERCA1a activity in the presence of MGX” value is “potent concentration-dependent protective effect” and the “Effect on SERCA1a activity” value is on record as “increase SERCA1a activity”. Moreover, the EC50 at SERCA1a (setting [3]) was 33.2 µM. For the same compound, at SERCA1a, the “Concentration from which the SERCA1a activating effect starts” value is listed as ≥ 30 µM.
